Assay results from patent publication EP0395653B1, “SYNOVIAL PHOSPHOLIPASES” (ELI LILLY AND COMPANY, priority 1987, dated 1989).

Legend:
highly purified PLA₂ = molecular target: T1, highly purified PLA₂ (Homo sapiens, UniProt P14555); assay: effect of SDS on rate of hydrolysis of phosphatidylcholine (Shakir's method); type: biochemical; conditions: of initial enzyme activity
T1 construct: from tissue; host or cells: pooled synovial fluid (CM Sephadex C50, Sephadex G75, preparative SDS-PAGE)
T1 sequence (P14555 21-144): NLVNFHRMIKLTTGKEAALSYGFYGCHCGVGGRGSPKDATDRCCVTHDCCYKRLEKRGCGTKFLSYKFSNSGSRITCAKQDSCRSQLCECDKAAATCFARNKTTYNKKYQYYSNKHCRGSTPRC
Description: Determination of phospholipase activities towards the radiolabeled synthetic substrates, dipalmitoylphosphatidylcholine, and 2-linoleoyl-1-palmitoylphosphatidylethanolamine, was carried out as described by Shakir, (1981) Anal Biochim 114:64-70. Standard incubation mixtures contained 750 nmol of phospholipid, 2 mM CaCl₂, 2 mM sodium deoxycholate (DOC), 0.09% Triton X-100, and enzyme protein in 0.1 M Tris-HCl buffer in a total volume of 400 µl. Incubations were carried out at optimal pH (see below) for 1 h at 37°C in a shaking water bath. The reaction was stopped by addition of 2.0 ml of n-heptane-isopropanol-1 N sulfuric acid (1:4:0.1, v/v/v). Released fatty acids were extracted by the method of Shakir, (1981) Anal Biochim 114:64-70. PLA₂ activity is expressed as nmol of released fatty acid per mg of protein per h.
The effect of SDS on the rate of hydrolysis of phosphatidylcholine by highly purified PLA₂ was studied using Shakir's method, supra. SDS inhibited PLA₂ activity on a concentration-dependent manner. Inhibition of PLA₂ was 94 and 7% of initial enzyme activity at SDS concentrations of 1 mg/ml and 0.1 mg/ml, respectively. In evaluating the utility of preparative SDS-PAGE, recovery of enzyme from the slab gel was consistently between 95-100% of the total enzyme applied to the gel.

sPLA₂ type B = assay: effect of Tris or Na deoxycholate on hydrolytic activity; type: biochemical, human
sPLA₂ type A = sPLA₂ type A (Homo sapiens, UniProt P14555); conditions: 0.5 M Tris

## CCCCCCCCCCCCOS(=O)(=O)[O-].[Na+] [SDS, sodium dodecyl sulfate]
Highly purified PLA₂; SDS 0.1 mg/ml
  inhibition at 100 µg/mL: 7%
Highly purified PLA₂; SDS 1 mg/ml
  inhibition at 1000 µg/mL: 94%

## NC(CO)(CO)CO [Tris]
sPLA₂ type B; 0.5 M Tris
  effect on hydrolytic activity of type B relative to type A: considerable stimulation
sPLA₂ type A
  effect on sPLA₂ type A activity: inhibited

## sodium deoxycholate [Na deoxycholate]
sPLA₂ type B; 0.1% Na deoxycholate
  effect on hydrolytic activity of type B relative to type A: considerable stimulation
